The subject of experiment [1] is intestinal calcium transport. The experiment can be described thus: Intestinal calcium transport in rats on low calcium diet. To be noted: for Ca transport S/M (mean ± SEM): daily for 7 days, male weanling rats, 0.02% Ca diet. The experiment is classed as in vivo, Sprague-Dawley rats. On the procedure:
Intestinal calcium transport was carried out as described by Penman et al (Biochemistry 29, 190-196,1990).
(§1) Male, weanling Sprague-Dawley rats were placed on Diet 11 (0.47% Ca) diet+AEK for 11 days, followed by Diet 11 (0.02% Ca)+AEK for 31 days. Dosing (i.p.) began 7 days prior to sacrifice. Doses were given on a daily basis, 24 hours apart. The first 10 cm of the intestine was collected for gut transport studies and serum was collected for bone Ca mobilization analysis.

In experiment [2] the test system is bone calcium mobilization. The experiment can be described thus: Serum calcium (bone calcium mobilization) in rats on low calcium diet. The experiment is classed as in vivo, Sprague-Dawley rats. The settings on record: for Serum Ca (mean ± SEM): daily for 7 days, male weanling rats, 0.02% Ca diet. As for the experimental part:
as §1

The target of experiment [3] is T1, vitamin D pig intestinal nuclear receptor (Sus scrofa, UniProt A3RGC1).
T1 construct: from tissue; host or cells: pig intestine (nuclear receptor preparation)
T1 sequence (A3RGC1 1-427): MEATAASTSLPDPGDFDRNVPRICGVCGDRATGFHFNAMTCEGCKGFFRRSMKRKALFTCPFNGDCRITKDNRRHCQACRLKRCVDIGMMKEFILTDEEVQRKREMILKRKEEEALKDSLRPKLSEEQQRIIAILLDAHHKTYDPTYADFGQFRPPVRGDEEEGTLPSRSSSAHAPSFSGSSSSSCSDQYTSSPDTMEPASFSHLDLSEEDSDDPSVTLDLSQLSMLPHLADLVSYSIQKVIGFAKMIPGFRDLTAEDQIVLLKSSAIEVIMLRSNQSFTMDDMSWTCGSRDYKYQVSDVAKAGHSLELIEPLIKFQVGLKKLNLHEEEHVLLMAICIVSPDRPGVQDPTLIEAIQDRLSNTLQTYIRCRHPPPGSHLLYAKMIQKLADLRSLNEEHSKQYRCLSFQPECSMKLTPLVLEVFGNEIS
To be noted: Ostrem et al. J. Biol. Chem. 262, 14164-14171, 1987; cited from earlier work.

The test system of experiment [4] is HL-60 cells. The experiment can be described thus: Differentiation of HL-60 promyelocytes into monocytes. The experiment is classed as cell-based. The settings on record: FIG. 2. As for the experimental part:
FIG. 2 is a graph illustrating the percent HL-60 cell differentiation as a function of the concentration of (20S)-1α-hydroxy-2-methylene-19-nor-vitamin D3 and of 1,25-dihydroxyvitamin D3
The differentiation of HL-60 promyelocytic into monocytes was determined as described by Ostrem et al (J. Biol. Chem. 262, 14164-14171, 1987).

For experiment [5], the target named is T1, vitamin D pig intestinal nuclear receptor. The experiment can be described thus: Competitive binding of [3H]-1,25-(OH)2-D3 to the porcine intestinal vitamin D receptor. On the procedure: FIG. 1 is a graph illustrating the relative activity of (20S)-1α-hydroxy-2-methylene-19-nor-vitamin D3 and 1α,25-dihydroxyvitamin D3 to compete for binding of [^3H]-1,25-(OH)2-D3 to the vitamin D pig intestinal nuclear receptor; and
Competitive binding of the analog to the porcine intestinal receptor was carried out by the method described by Dame et al. (Biochemistry 25, 4523-4534, 1986).

Regarding `C=C1/C(=C\C=C2/CCC[C@]3(C)[C@@H]([C@H](C)CCCC(C)(C)O)CC[C@@H]23)C[C@@H](O)C[C@@H]1O` [1α,25-(OH)2D3, 1α,25-dihydroxyvitamin D3, reference compound], in experiment [1] (260 pmol/day i.p.), the “Ca transport S/M (mean ± SEM)” value is on record as 7.7 ± 0.52. In addition, the “Serum Ca (mean ± SEM)” value in experiment [2] (260 pmol/day i.p.) is 6.25 ± 0.19.

Take `C=C1/C(=C\C=C2/CCC[C@]3(C)[C@@H]([C@H](C)CCCC(C)C)CC[C@@H]23)C[C@@H](O)C[C@@H]1O` [1α-hydroxyvitamin D3]: in experiment [3], the “decrease in binding activity resulting from lack of a 25-hydroxyl” value was 100 fold.

Regarding `C=C1[C@H](O)CC(=C/C=C2\CCC[C@@]3(C)C2CCC3[C@@H](C)CCCC(C)C)C[C@H]1O` (stereo partly drawn) [(20S)-1α-(OH)-2-methylene-19-nor-D3, (20S)-1α-hydroxy-2-methylene-19-nor-vitamin D3], the “Ca transport S/M (mean ± SEM)” value in experiment [1] (130 pmol/day i.p.) was 10.1 ± 0.68; in experiment [1] (260 pmol/day i.p.), 10.0 ± 0.59. For the same molecule, in experiment [1] (statement in words on Table 1), the “activity in stimulating intestinal calcium transport relative to 1,25-(OH)2D3” value is recorded as “higher activity as compared to that of 1,25-(OH)2D3”. Further, the results for the “potency on HL-60 differentiation relative to 1,25-(OH)2D3” value in experiment [4] (listed as (20S)-1α-Hydroxy-2-methylene-19-nor-vitamin D3) and in experiment [4] (listed as (20S)-1α-hydroxy-2-methylene-19-nor-vitamin D3) were “more active than 1,25-(OH)2D3” and “more potent than 1,25-(OH)2D3”, respectively. Further, the “Serum Ca (mean ± SEM)” value in experiment [2] (130 pmol/day i.p.) is given as 9.63 ± 0.12; in experiment [2] (260 pmol/day i.p.), 12.60 ± 0.54. In addition, the “bone calcium mobilization activity relative to 1,25-(OH)2D3” value in experiment [2] (statement in words on Table 1) is “higher bone calcium mobilization activity, as compared to 1,25-(OH)2D3”. The “ability to bind the vitamin D receptor relative to 1,25-dihydroxyvitamin D3” value in experiment [5] (FIG. 1) was “only a little less activity than 1,25(OH)2D3”; in experiment [5] (FIG. 1, listed as 2-Methylene-19-nor-(20S)-1α-hydroxyvitamin D3), “only one-tenth that of 1,25-dihydroxyvitamin D3”.

Values taken from patent US20050009792A1, “(20S)-1alpha-hydroxy-2-methylene-19-nor-vitamin D3 and its uses” (priority 2003, published 2005).
